The structures appear in SMILES notation.

The data set in a line: Human HepG2 cell viability assay in 384 well format. The data set is classed as toxicity, cell-based. Details: dose 125 nL, time 70.5 hour; concentration not given beside the values. The settings on record: HepG2 cells, read-out: Inhibition.
For `CCn1nc(CC(C)C)cc1C(=O)N1CCC(n2cnnc2)CC1`, the cytotoxicity at 70.5 h was determined as 8.59%.

As for `Cc1cc(CN2CC3(CCN(C(=O)C4CC4)CC3)CC2C(=O)O)oc1C` (stereo not given), the cytotoxicity at 70.5 h is -7.26%. As for `CN(C)S(=O)(=O)N1CCC(c2ccncn2)CC1`, the cytotoxicity at 70.5 h was -11.3%. Then `CCn1cnnc1CCNC(=O)C1COc2ccc(OC)cc2C1` (stereo not given), with -11.5%. For the molecule `Cc1ncc(CC(=O)N2CCCC(COc3ccccc3F)C2)c(=O)[nH]1` (stereo not given), the cytotoxicity at 70.5 h is -9.07%. To `CCN1c2ccc(-c3cncn3CC(=O)NC(C)(C)C)cc2CC1C` (stereo not given) belongs -7.81%; to `CCc1nc(CC)n(CC(=O)NCc2cccc(C)c2)n1`, -6.53%; to `CC(C(=O)NC1CC1)S(=O)(=O)Cc1noc(C(C)(C)C)n1` (stereo not given), -1.87%.

For the molecule `COc1ccc(-c2n[nH]cc2CN(C)CCc2scnc2C)c(F)c1`, the cytotoxicity at 70.5 h is 1.84%.

As for `Cc1cnc2c(S(=O)(=O)NCC3CCS(=O)(=O)C3)cccc2c1` (stereo not given), the cytotoxicity at 70.5 h came to 51.3%. For the molecule `CCN(CCOc1ccc(F)cc1)C(=O)c1ccncc1Cl`, the cytotoxicity at 70.5 h was -2.29%. For `Cc1cc(C2CCCN2S(=O)(=O)c2cnn(C)c2)on1` (stereo not given), the cytotoxicity at 70.5 h is -6.62%.

As for `CC(OCC1CC1)C(=O)NCc1cccc(CN2CCN(C)CC2)c1` (stereo not given), the cytotoxicity at 70.5 h turned out to be 5.66%. Then `CC(C)NC(=O)NCc1ccc(C(=O)NC(C)Cn2cccn2)cc1` (stereo not given), with -13.2%; and `N#Cc1cccc(OCCN2CCNC(=O)C2c2cccs2)c1` (stereo not given), with -6%. To `CC(C)C[C@H](NC(=O)Nc1ccc(F)c(Cl)c1)C(=O)O` belongs 6.99%. Consider `O=C1OCCC1N1CCN(C(=O)Cc2ccccc2Cl)CC1` (stereo not given), for which the cytotoxicity at 70.5 h is -0.257%. Then `Cc1nc(CN(C)C2CCN(Cc3ccc(Cl)s3)C2)no1` (stereo not given), with -4.8%. For `CN(C)CC1CN(Cc2cc(Cl)cc3cccnc23)CCO1` (stereo not given), the cytotoxicity at 70.5 h was -9.09%. In the case of `COc1ccc(C)cc1-c1[nH]c2ccccc2c1C(=O)O`, the cytotoxicity at 70.5 h was -10.2%.

For `CC(=O)NCCC(=O)N(C/C=C/c1ccccc1)CCO`, the cytotoxicity at 70.5 h worked out at 24%. Then `Cc1cccc(CN2C(=O)OCC2CO)c1F` (stereo not given), with 14.6%; and `CC(C)NC(=O)c1cc(-c2ccc(S(C)(=O)=O)cc2)c2cnn(C)c2n1`, with -0.443%. In the case of `CC1CCCN(CCNC(=O)c2ccn(-c3ccccc3)n2)C1` (stereo not given), the cytotoxicity at 70.5 h is -5.27%.

For `COc1cc(CN2CCC3(CC2)[C@H](O)C[C@@H]3OCCO)ccc1F`, the cytotoxicity at 70.5 h was -8.63%. Then `CCc1nc(CN2CCCN(C(=O)C(C)n3cncn3)CC2)cs1` (stereo not given), with -8.34%; and `CN(C(=O)CSc1ncc[nH]1)C1CC1`, with -3.27%; and `c1ncn(CC2CCCN(Cc3cn4ccsc4n3)C2)n1` (stereo not given), with -5.75%. To `COCCOC1CCN(C(=O)NCc2coc3ccccc23)CC1` belongs -6.59%; to `Cc1n[nH]cc1CNCc1cccc(OCC(F)(F)F)c1`, -0.995%; to `CN1CCN(C)C(CNc2c(C#N)cnc3ccc(Cl)cc23)C1` (stereo not given), -8.13%. Then `CN1C(=O)C2(CCNCC2)c2cc(F)ccc21`, with -4.69%; and `Cc1cn2nc(N3CCCC3Cn3cncn3)sc2n1` (stereo not given), with -3.48%. As for `CCn1nc(C)c(-c2cncn2CCN(C)C2CCCC2)c1C`, the cytotoxicity at 70.5 h is -7.35%.

With `CC(C)c1nc(-c2cc(C(=O)NCCCO)c3ccccn23)cs1`, the cytotoxicity at 70.5 h was -3.65%. To `COc1ccc(S(=O)(=O)C(F)(F)F)cc1NC(=O)CSCC#N` belongs 1.04%.

As to `Cc1nn(C)c(Oc2ccc(Cl)cc2)c1CN1CCC(CN)C1` (stereo not given), the cytotoxicity at 70.5 h is -8.55%.

Regarding `CC(=O)N1CCC(C(=O)NCc2cc[nH]n2)(c2ccccc2)CC1`, the cytotoxicity at 70.5 h was -5.74%.

Regarding `Cc1ccc2oc(CNC(C)c3nnc4n3CCCC4)cc2c1` (stereo not given), the cytotoxicity at 70.5 h is 5.79%. To `O=C(NCCc1cccs1)[C@]12COC[C@H]1CN(Cc1ccccn1)C2` belongs 39.1%; to `CN1CCN(C2CCN(CCOc3ccccc3)CC2)C1=O`, -14.7%; to `c1cncc(OC[C@]23COC[C@H]2CN(C2CCOCC2)C3)c1`, -1.59%. To `CN1CCCC2(CCN(C(=O)Cn3ncc4ccccc4c3=O)C2)C1=O` (stereo not given) belongs 9.09%; to `CC(C)N1CCO[C@@H]2CN(C(=O)NCc3ccccc3)CC[C@@H]2C1`, 28.5%; to `CCN(Cc1ccccc1O)CC1(C)Cc2c(N)nc(N)nc2O1` (stereo not given), -3.26%.

Turning to `COc1cc(OC)cc(N2CCC(NCc3cccs3)C2=O)c1` (stereo not given), the cytotoxicity at 70.5 h was -0.0615%.

Regarding `CCC(=O)N1CCCC(c2nc(-c3cccnn3)no2)C1` (stereo not given), the cytotoxicity at 70.5 h is -0.455%. To `CCc1nc2c(NCC3COc4c(cccc4OC)C3)ncnc2o1` (stereo not given) belongs -4.9%. Then `C=C(C)COc1cccc(C(=O)NC(C)c2nnn[nH]2)c1` (stereo not given), with 18.4%.

For `CC(C)[C@@H]1CN(Cc2c[nH]nc2-c2ccc(F)cc2)C[C@H]1NS(C)(=O)=O`, the cytotoxicity at 70.5 h was -2.13%.

As for `Cc1ccc(NC(=O)c2cnc(N3CCN(C)CC3)nc2C)cc1C`, the cytotoxicity at 70.5 h was -4.49%. To `CCc1cc(NC2CCN(CC(N)=O)CC2)nc(N2CCCCC2)n1` belongs -2.44%. To `COc1cc(N2CC[C@@H]3O[C@H](C(=O)N(C)C)C[C@@H]32)ncn1` belongs -17.2%. Then `Cc1nn(C)c(C)c1C(=O)NCc1cccnc1OC1CCCC1`, with -5.73%; and `Cc1ccc(C(C(=O)NCCN2CCCCCC2)N(C)C)cc1` (stereo not given), with 5.23%; and `CCCc1nc(C)c(C(=O)NCc2ccc(C)n2C)s1`, with 17.6%.

For the molecule `COCC(C)(C)NC(=O)CC(c1ccccc1)C(F)(F)F` (stereo not given), the cytotoxicity at 70.5 h was -15.6%. For `CC(C)CN1CC(c2nc(-c3cccc(F)c3)c[nH]2)CC1=O` (stereo not given), the cytotoxicity at 70.5 h is -7.31%. Then `Cc1ccccc1C1(C(=O)NCCN2CCCC(C)C2)CCOCC1` (stereo not given), with 32.7%; and `COc1ccc(CCN(C)C2CCCN(Cc3noc(C)n3)C2)cc1` (stereo not given), with 25%.

Consider `COc1ccc(OCC(=O)NC(C)c2ccccc2)c(C(=O)O)c1` (stereo not given), for which the cytotoxicity at 70.5 h is -7.12%.

Take `CN(Cc1noc2c1CCCC2)C(=O)Nc1cccc(S(N)(=O)=O)c1`: the cytotoxicity at 70.5 h was 17.1%. Then `Cc1ccc(-n2nc(C)cc2N)nn1`, with -14.8%.

As to `Cc1cc(C)cc(C(=O)NCCS(=O)(=O)N2CCSCC2)c1`, the cytotoxicity at 70.5 h was 20.5%. Then `Cn1ccnc1CN1CCOC(C)(C(=O)N2CCOCC2)C1` (stereo not given), with 1.29%; and `COC(=O)CCNC(=O)c1nnn(-c2ccccc2)c1C(F)(F)F`, with 0.121%; and `O=C1CC(c2ccc(C(=O)O)cc2)c2ncn(-c3cccc(Cl)c3)c2N1` (stereo not given), with -9.82%.

As to `CCOC(=O)c1nnc2ccccc2c1N1CCN(C(C)C)CC1`, the cytotoxicity at 70.5 h is -4.21%. Then `CO[C@H]1CCN(c2ncc(F)cn2)[C@@H]2CN(Cc3ccco3)C[C@H]12`, with -6.95%. Then `CCN(Cc1ccncc1)C(=O)C(C)n1ccnc1C(C)C` (stereo not given), with -11.1%; and `Cc1nc(CN2CCOCC3(CCN(c4cnccn4)CC3)C2)cs1`, with -82.2%. Then `CN(C)C(=O)CN1CCCC(c2nccnc2-c2cccc(Cl)c2)C1` (stereo not given), with 1.03%; and `Cc1noc(CCCC(=O)NCCc2cc3ccccc3[nH]2)n1`, with -6.92%. For the molecule `O=C(O)COc1ccc(Cl)cc1CN1CCC2(CCNCC2)CC1`, the cytotoxicity at 70.5 h is -11.2%. For the molecule `Cc1nc2c(c(NCCN3CCOCC3)n1)CCN(C)C2`, the cytotoxicity at 70.5 h turned out to be 32.4%. Then `Cc1ccc(N2CCCc3sc(C(=O)NCCO)nc32)nn1`, with -1.7%; and `CC(C)NC(=O)[C@@]12CCO[C@@H]1CCN(Cc1ccc3c(c1)OCO3)C2`, with 1.85%. Regarding `CN(C)C(=O)CN(C)C(=O)c1cnc(Cc2ccc(F)cc2)s1`, the cytotoxicity at 70.5 h was -0.843%. For the molecule `Cc1nnc(N2CCNCC2)c(C(N)=O)c1C`, the cytotoxicity at 70.5 h is -16.9%. To `CCc1nccn1C1CCCN(C(=O)c2ccc3c(c2)OCO3)C1` (stereo not given) belongs -6.7%; to `CCCN(CCC)C(=O)CN1CCCC1C(=O)N(C)C` (stereo not given), -5.85%; to `COc1ccnc(N2CCC3(CC2)[C@H](O)C[C@@H]3OCCN(C)C)n1`, 2.31%. To `N#Cc1cnc(N2Cc3cnn(Cc4ccc(F)cc4)c3C2)nc1N` belongs -6.63%; to `c1cc2c(cc1Cn1cc(C3CCOC3)nn1)OCO2` (stereo not given), -16.1%. To `CSc1[nH]nc(NC(=O)c2cccs2)c1C#N` belongs -10.4%; to `O=C(c1ccnc(NC2CC2)c1)N1CCCC1c1cccc(Br)c1` (stereo not given), -6.56%; to `Cc1c(C(=O)N2CCC(O)(CN(C)C)C2)c2cc(O)ccc2n1C` (stereo not given), -9.59%. For `CCN(CC)c1ncc(Cl)c(C(=O)NC2CCC(O)CC2)n1` (stereo not given), the cytotoxicity at 70.5 h is -0.431%. To `CC(NC(=O)Nc1cccnc1N1CCCC1)c1ccncc1` (stereo not given) belongs 0.728%; to `CN(Cc1noc2c1CCCC2)C(=O)C1Cc2ccccc2CN1C` (stereo not given), -6.59%; to `C[C@@H]1CN(Cc2ccsc2)C[C@]12CCN(Cc1cccnc1)C2=O`, 39%. Then `Cc1cccc(C(=O)N2C[C@@H](OCc3cccnc3)[C@H]3OCCC[C@@H]32)n1`, with -1.75%; and `Cn1nccc1C(=O)Nc1cc(C(F)(F)F)c[nH]c1=O`, with -6.13%; and `CC(C)c1nc2n(n1)CC(NCc1ccncc1)CC2` (stereo not given), with -16.7%.

On to `COCCC1(CO)CCCN(Cc2cc(C(F)(F)F)ccc2F)C1` (stereo not given), for which the cytotoxicity at 70.5 h is -1.42%.

For `O=C(CSc1ccccn1)NCc1ccc2c(c1)CCC(=O)N2`, the cytotoxicity at 70.5 h is 40.7%. Then `COc1ccccc1CN1CCCC(n2cccn2)C1` (stereo not given), with -1.34%; and `Cc1cc(CNC(=O)CCCN2CCCCC2)n(C)n1`, with 12.2%; and `O=S(=O)(Cc1nc(C2CC2)no1)c1cc(F)ccc1F`, with -12.2%. As for `O=C(NCCc1cccnc1)NC1CCOC2(CCCCC2)C1` (stereo not given), the cytotoxicity at 70.5 h was 17.8%.

(Values after ChEMBL document CHEMBL3507680, “University of Dundee, Gates Library screen for HepG2 cell viability”.)
